Reference: PubChem BioAssay (NCI)
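Here, GI50 denotes the concentration required for 50% inhibition of growth. TGI denotes the concentration required for complete inhibition of growth.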

How the values were obtained:
Experiment in all cases: inhibition of tumour cell growth, NCI panel, 384-well format
[1] = system: NCI/ADR-RES ovarian
[2] = system: MDA-MB-231 breast
[3] = system: IGROV1 ovarian
[4] = system: OVCAR-4 ovarian
[5] = system: SNB-75 CNS
[6] = system: MALME-3M melanoma
[7] = system: NCI-H23 lung
[8] = system: SK-MEL-28 melanoma
[9] = system: PC-3 prostate
[10] = system: RXF 393 renal
[11] = system: SF-295 CNS
[12] = system: MOLT-4 leukemia
[13] = system: TK-10 renal
[14] = system: UACC-257 melanoma
[15] = system: OVCAR-5 ovarian
[16] = system: SW-620 colon
[17] = system: MDA-MB-468 breast
[18] = system: HCT-116 colon
[19] = system: SR leukemia
[20] = system: SF-539 CNS
[21] = system: HOP-62 NSCLC
[22] = system: HS 578T breast
[23] = system: NCI-H460 NSCLC
[24] = system: HCC-2998 colon
[25] = system: ACHN renal
[26] = system: BT-549 breast
[27] = system: HT29 colon
[28] = system: A549 NSCLC
[29] = system: NCI-H226 lung
[30] = system: A498 renal
[31] = system: RPMI-8226 leukemia
[32] = system: SF-268 CNS
[33] = system: DU-145 prostate
[34] = system: HL-60(TB) leukemia
[35] = system: COLO 205 colon
[36] = system: T-47D breast
[37] = system: HCT-15 colon
[38] = system: SK-MEL-5 melanoma
[39] = system: M14 melanoma
[40] = system: MDA-MB-435 melanoma
[41] = system: SN12C renal
[42] = system: OVCAR-8 ovarian
[43] = system: CAKI-1 renal
[44] = system: NCI-H522 lung
[45] = system: U251 glioblastoma
[46] = system: MCF7 breast
[47] = system: UO-31 renal
[48] = system: OVCAR-3 ovarian
[49] = system: HOP-92 NSCLC
[50] = system: SNB-19 CNS
[51] = system: NCI-H322M lung
[52] = system: EKVX NSCLC
[53] = system: SK-OV-3 ovarian
[54] = system: 786-0 renal
[55] = system: LOX IMVI melanoma
[56] = system: UACC-62 melanoma
[57] = system: KM12 colon

Compound: COc1nc(N)nc2c1ncn2[C@@H]1O[C@H](CO)[C@@H](O)[C@@H]1O
- GI50 [1]: > 100 µM
- TGI [1]: > 100 µM
- GI50 [2]: > 100 µM
- TGI [2]: > 100 µM
- GI50 [3]: > 100 µM
- TGI [3]: > 100 µM
- GI50 [4]: > 100 µM
- TGI [4]: > 100 µM
- GI50 [5]: > 100 µM
- TGI [5]: > 100 µM
- GI50 [6]: > 100 µM
- TGI [6]: > 100 µM
- GI50 [7]: > 100 µM
- TGI [7]: > 100 µM
- GI50 [8]: > 100 µM
- TGI [8]: > 100 µM
- GI50 [9]: > 100 µM
- TGI [9]: > 100 µM
- GI50 [10]: > 100 µM
- TGI [10]: > 100 µM
- GI50 [11]: > 100 µM
- TGI [11]: > 100 µM
- GI50 [12]: 1.31 µM
- TGI [12]: 2.59 µM
- GI50 [13]: > 100 µM
- TGI [13]: > 100 µM
- GI50 [14]: > 100 µM
- TGI [14]: > 100 µM
- GI50 [15]: > 100 µM
- TGI [15]: > 100 µM
- GI50 [16]: > 100 µM
- TGI [16]: > 100 µM
- GI50 [17]: > 100 µM
- TGI [17]: > 100 µM
- GI50 [18]: > 100 µM
- TGI [18]: > 100 µM
- GI50 [19]: > 100 µM
- TGI [19]: > 100 µM
- GI50 [20]: > 100 µM
- TGI [20]: > 100 µM
- GI50 [21]: > 100 µM
- TGI [21]: > 100 µM
- GI50 [22]: > 100 µM
- TGI [22]: > 100 µM
- GI50 [23]: > 100 µM
- TGI [23]: > 100 µM
- GI50 [24]: > 100 µM
- TGI [24]: > 100 µM
- GI50 [25]: > 100 µM
- TGI [25]: > 100 µM
- GI50 [26]: > 100 µM
- TGI [26]: > 100 µM
- GI50 [27]: > 100 µM
- TGI [27]: > 100 µM
- GI50 [28]: > 100 µM
- TGI [28]: > 100 µM
- GI50 [29]: > 100 µM
- TGI [29]: > 100 µM
- GI50 [30]: > 100 µM
- TGI [30]: > 100 µM
- GI50 [31]: > 100 µM
- TGI [31]: > 100 µM
- GI50 [32]: > 100 µM
- TGI [32]: > 100 µM
- GI50 [33]: > 100 µM
- TGI [33]: > 100 µM
- GI50 [34]: > 100 µM
- TGI [34]: > 100 µM
- GI50 [35]: > 100 µM
- TGI [35]: > 100 µM
- GI50 [36]: > 100 µM
- TGI [36]: > 100 µM
- GI50 [37]: > 100 µM
- TGI [37]: > 100 µM
- GI50 [38]: > 100 µM
- TGI [38]: > 100 µM
- GI50 [39]: > 100 µM
- TGI [39]: > 100 µM
- GI50 [40]: > 100 µM
- TGI [40]: > 100 µM
- GI50 [41]: > 100 µM
- TGI [41]: > 100 µM
- GI50 [42]: > 100 µM
- TGI [42]: > 100 µM
- GI50 [43]: > 100 µM
- TGI [43]: > 100 µM
- GI50 [44]: > 100 µM
- TGI [44]: > 100 µM
- GI50 [45]: > 100 µM
- TGI [45]: > 100 µM
- GI50 [46]: > 100 µM
- TGI [46]: > 100 µM
- GI50 [47]: > 100 µM
- TGI [47]: > 100 µM
- GI50 [48]: > 100 µM
- TGI [48]: > 100 µM
- GI50 [49]: > 100 µM
- TGI [49]: > 100 µM
- GI50 [50]: > 100 µM
- TGI [50]: > 100 µM
- GI50 [51]: > 100 µM
- TGI [51]: > 100 µM
- GI50 [52]: > 100 µM
- TGI [52]: > 100 µM
- GI50 [53]: > 100 µM
- TGI [53]: > 100 µM
- GI50 [54]: > 100 µM
- TGI [54]: > 100 µM
- GI50 [55]: > 100 µM
- TGI [55]: > 100 µM
- GI50 [56]: > 100 µM
- TGI [56]: > 100 µM
- GI50 [57]: > 100 µM
- TGI [57]: > 100 µM
